Measurements as given in patent US10093630B2, “Pyrazole compounds and methods of making and using same” (ABIDE THERAPEUTICS, INC., priority 2014, dated 2018).

How the values were obtained:
Assay in all cases: In vitro competitive activity-based protein profiling (gel-based, FP-Rh or HT-01 probe)
Type in all cases: biochemical
FAAH = biological target: T1, FAAH (Mus musculus, UniProt O08914); settings: for inhibition at 1 µM: 1 μM inhibitor, read-out: % Inhibition at 1 μM, B = FAAH; for inhibition at 1 µM / inhibition at 10 µM: gel-based competitive ABPP; for IC50: mouse brain membrane fraction or cell lysates, 30 min preincubation at 37° C., read-out: Mouse (IC50 value, nM) FAAH; for inhibition at 10 µM: 10 μM inhibitor, read-out: % Inhibition at 10 μM, B = FAAH
T1 construct: Proteomes (mouse brain membrane fraction or cell lysates); from tissue; host or cells: mouse brain membrane fraction (or cell lysates, not specified)
T1 sequence (O08914 1-579): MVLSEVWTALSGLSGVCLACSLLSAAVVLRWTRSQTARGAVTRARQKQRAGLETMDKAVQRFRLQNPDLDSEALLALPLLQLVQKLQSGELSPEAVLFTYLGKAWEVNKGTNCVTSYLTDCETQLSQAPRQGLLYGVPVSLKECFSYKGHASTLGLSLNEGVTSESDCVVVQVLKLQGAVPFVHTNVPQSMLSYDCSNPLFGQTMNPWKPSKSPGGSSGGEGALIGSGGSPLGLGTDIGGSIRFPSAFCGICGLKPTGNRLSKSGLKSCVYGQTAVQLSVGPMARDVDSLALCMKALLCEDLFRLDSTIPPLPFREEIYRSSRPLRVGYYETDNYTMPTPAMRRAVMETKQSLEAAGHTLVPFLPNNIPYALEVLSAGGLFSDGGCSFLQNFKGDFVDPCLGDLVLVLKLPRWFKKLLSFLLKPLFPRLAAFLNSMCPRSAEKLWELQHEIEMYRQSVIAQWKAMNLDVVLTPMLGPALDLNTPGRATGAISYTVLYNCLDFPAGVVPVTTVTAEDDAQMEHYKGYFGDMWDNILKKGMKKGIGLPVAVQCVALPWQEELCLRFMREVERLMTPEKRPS
In short: (§1)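 Competitive labelling format in mouse brain membrane fractions or lysates at 1.0 mg/mL total protein: compounds preincubate 30 min at 37° C, activity probe FP-Rh or HT-01 then reacts 30 min at 37° C. Gel band fluorescence gives target activity.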

MAGL = biological target: T2, MAGL (Mus musculus, UniProt O35678); settings: for inhibition at 1 µM: 1 μM inhibitor; for inhibition at 1 µM / inhibition at 10 µM: gel-based competitive ABPP; for IC50: mouse brain membrane fraction or cell lysates, 30 min preincubation at 37° C., read-out: Mouse (IC50 value, nM) MAGL; for inhibition at 10 µM: 10 μM inhibitor
T2 construct: Proteomes (mouse brain membrane fraction or cell lysates); from tissue; host or cells: mouse brain membrane fraction (or cell lysates, not specified)
T2 sequence (O35678 1-303): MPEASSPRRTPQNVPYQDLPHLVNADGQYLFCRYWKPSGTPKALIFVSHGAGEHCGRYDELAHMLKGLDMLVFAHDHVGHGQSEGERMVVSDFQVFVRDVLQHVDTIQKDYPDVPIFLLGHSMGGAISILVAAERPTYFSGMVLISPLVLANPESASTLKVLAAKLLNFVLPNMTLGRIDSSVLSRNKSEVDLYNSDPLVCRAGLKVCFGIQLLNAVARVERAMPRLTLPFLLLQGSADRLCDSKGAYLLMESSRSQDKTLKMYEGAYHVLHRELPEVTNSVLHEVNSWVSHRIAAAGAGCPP
In short: as §1

PLA2G7 = biological target: T3, PLA2G7 (Mus musculus, UniProt Q60963); settings: for inhibition at 1 µM: 1 μM inhibitor, read-out: % Inhibition at 1 μM, D = PLA2G7; for inhibition at 1 µM / inhibition at 10 µM: gel-based competitive ABPP; for IC50: mouse brain membrane fraction or cell lysates, 30 min preincubation at 37° C.; for inhibition at 10 µM: 10 μM inhibitor, read-out: % Inhibition at 10 μM, D = PLA2G7
T3 construct: Proteomes (mouse brain membrane fraction or cell lysates); from tissue; host or cells: mouse brain membrane fraction (or cell lysates, not specified)
T3 sequence (Q60963 22-440): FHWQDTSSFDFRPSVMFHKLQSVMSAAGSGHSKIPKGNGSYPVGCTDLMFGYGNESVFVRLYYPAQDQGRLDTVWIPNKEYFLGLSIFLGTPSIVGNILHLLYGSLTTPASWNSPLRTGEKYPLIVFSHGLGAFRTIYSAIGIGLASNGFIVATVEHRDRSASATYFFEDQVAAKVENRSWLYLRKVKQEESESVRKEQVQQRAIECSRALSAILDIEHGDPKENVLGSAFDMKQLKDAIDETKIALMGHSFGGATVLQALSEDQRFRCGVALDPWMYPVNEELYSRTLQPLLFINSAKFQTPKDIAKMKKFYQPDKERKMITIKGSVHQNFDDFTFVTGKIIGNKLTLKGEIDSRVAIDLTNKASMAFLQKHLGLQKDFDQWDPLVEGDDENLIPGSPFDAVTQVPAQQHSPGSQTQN
In short: as §1

ABHD6 = biological target: T4, ABHD6 (Mus musculus, UniProt Q8R2Y0); settings: for inhibition at 1 µM: 1 μM inhibitor, read-out: % Inhibition at 1 μM, C = ABHD6; for inhibition at 1 µM / inhibition at 10 µM: gel-based competitive ABPP; for IC50: mouse brain membrane fraction or cell lysates, 30 min preincubation at 37° C., read-out: Mouse (IC50 value, nM) ABHD6; for inhibition at 10 µM: 10 μM inhibitor, read-out: % Inhibition at 10 μM, C = ABHD6
T4 construct: Proteomes (mouse brain membrane fraction or cell lysates); from tissue; host or cells: mouse brain membrane fraction (or cell lysates, not specified)
T4 sequence (Q8R2Y0 1-336): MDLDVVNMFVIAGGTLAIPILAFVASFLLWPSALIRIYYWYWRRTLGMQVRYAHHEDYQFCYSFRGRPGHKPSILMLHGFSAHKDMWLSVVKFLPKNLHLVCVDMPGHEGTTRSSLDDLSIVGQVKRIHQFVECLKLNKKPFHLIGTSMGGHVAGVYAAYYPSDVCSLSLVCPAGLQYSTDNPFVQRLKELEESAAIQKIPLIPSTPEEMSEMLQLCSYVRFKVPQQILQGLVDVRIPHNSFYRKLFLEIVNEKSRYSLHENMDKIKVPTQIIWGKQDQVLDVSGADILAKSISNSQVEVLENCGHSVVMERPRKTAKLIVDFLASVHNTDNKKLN
In short: as §1

inhibition at 1 µM (FAAH) | IC50 (FAAH) | inhibition at 1 µM (MAGL) | IC50 (MAGL) | inhibition at 1 µM (PLA2G7) | IC50 (PLA2G7) | inhibition at 1 µM (ABHD6) | IC50 (ABHD6) | inhibition at 10 µM (FAAH) | inhibition at 10 µM (MAGL) | inhibition at 10 µM (PLA2G7) | inhibition at 10 µM (ABHD6) | SMILES
> 75% | < 100 nM | > 75% | < 100 nM | > 75% | < 100 nM | > 75% | < 100 nM | – | – | – | – | O=C(N1CCN(Cc2cccc(F)c2)CC1)n1cc(C(F)(F)F)cn1 [Example 269, (4-(3-Fluorobenzyl)piperazin-1-yl)(4-(trifluoromethyl)-1H-pyrazol-1-yl)methanone]
> 75% | – | > 75% | – | > 75% | – | > 75% | – | – | – | – | – | Cc1cccc(CN2CCN(C(=O)n3cc(C(F)(F)F)cn3)CC2)c1 [Example 270, (4-(3-Methylbenzyl)piperazin-1-yl)(4-(trifluoromethyl)-1H-pyrazol-1-yl)methanone]
> 75% | < 100 nM | > 75% | < 100 nM | > 75% | < 100 nM | > 75% | < 100 nM | – | – | – | – | COc1cccc(CN2CCN(C(=O)n3cc(C(F)(F)F)cn3)CC2)c1 [Example 271, (4-(3-Methoxybenzyl)piperazin-1-yl)(4-(trifluoromethyl)-1H-pyrazol-1-yl)methanone]
> 75% | < 100 nM | > 75% | < 100 nM | > 75% | 100 to 1000 nM | > 75% | < 100 nM | – | – | – | – | O=C(N1CCN(Cc2cccc(C(F)(F)F)c2)CC1)n1cc(C(F)(F)F)cn1 [Example 272, (4-(Trifluoromethyl)-1H-pyrazol-1-yl)(4-(3-(trifluoromethyl)benzyl)piperazin-1-yl)methanone]
> 75% | < 100 nM | > 75% | < 100 nM | > 75% | < 100 nM | > 75% | < 100 nM | – | – | – | – | O=C(N1CCN(Cc2cccc(N3CCCC3)c2)CC1)n1cc(C(F)(F)F)cn1 [Example 273, (4-(3-(Pyrrolidin-1-yl)benzyl)piperazin-1-yl)(4-(trifluoromethyl)-1H-pyrazol-1-yl)methanone]
> 75% | 100 to 1000 nM | > 75% | < 100 nM | > 75% | < 100 nM | > 75% | < 100 nM | – | – | – | – | O=C(N1CCN(Cc2cccc(N3CCOCC3)c2)CC1)n1cc(C(F)(F)F)cn1 [Example 274, (4-(3-Morpholinobenzyl)piperazin-1-yl)(4-(trifluoromethyl)-1H-pyrazol-1-yl)methanone]
> 75% | < 100 nM | > 75% | < 100 nM | > 75% | < 100 nM | > 75% | < 100 nM | – | – | – | – | O=C(N1CCN(Cc2ccccc2Cl)CC1)n1cc(C(F)(F)F)cn1 [Example 275, (4-(2-Chlorobenzyl)piperazin-1-yl)(4-(trifluoromethyl)-1H-pyrazol-1-yl)methanone]
> 75% | < 100 nM | > 75% | < 100 nM | > 75% | < 100 nM | > 75% | < 100 nM | – | – | – | – | O=C(N1CCN(Cc2ccccc2F)CC1)n1cc(C(F)(F)F)cn1 [Example 276, (4-(2-Fluorobenzyl)piperazin-1-yl)(4-(trifluoromethyl)-1H-pyrazol-1-yl)methanone]
> 75% | – | > 75% | – | > 75% | – | > 75% | – | – | – | – | – | Cc1ccccc1CN1CCN(C(=O)n2cc(C(F)(F)F)cn2)CC1 [Example 277, (4-(2-Methylbenzyl)piperazin-1-yl)(4-(trifluoromethyl)-1H-pyrazol-1-yl)methanone]
> 75% | – | > 75% | – | > 75% | – | > 75% | – | – | – | – | – | COc1ccccc1CN1CCN(C(=O)n2cc(C(F)(F)F)cn2)CC1 [Example 278, (4-(2-Methoxybenzyl)piperazin-1-yl)(4-(trifluoromethyl)-1H-pyrazol-1-yl)methanone]
> 75% | < 100 nM | > 75% | < 100 nM | > 75% | 100 to 1000 nM | > 75% | < 100 nM | – | – | – | – | O=C(N1CCN(Cc2ccccc2C(F)(F)F)CC1)n1cc(C(F)(F)F)cn1 [Example 279, (4-(Trifluoromethyl)-1H-pyrazol-1-yl)(4-(2-(trifluoromethyl)benzyl)piperazin-1-yl)methanone]
> 75% | 100 to 1000 nM | > 75% | < 100 nM | > 75% | < 100 nM | > 75% | 100 to 1000 nM | – | – | – | – | O=C(N1CCN(Cc2ccccc2N2CCCC2)CC1)n1cc(C(F)(F)F)cn1 [Example 280, (4-(2-(Pyrrolidin-1-yl)benzyl)piperazin-1-yl)(4-(trifluoromethyl)-1H-pyrazol-1-yl)methanone]
> 75% | – | > 75% | – | > 75% | – | > 75% | – | – | – | – | – | O=C(N1CCN(Cc2ccccc2N2CCOCC2)CC1)n1cc(C(F)(F)F)cn1 [Example 281, (4-(2-Morpholinobenzyl)piperazin-1-yl)(4-(trifluoromethyl)-1H-pyrazol-1-yl)methanone]
> 75% | – | > 75% | – | > 75% | – | > 75% | – | > 75% | > 75% | > 75% | > 75% | N#Cc1cnn(C(=O)N2CCN(Cc3ccc(C(=O)N4CCCCC4)cc3Cl)CC2)c1 [Example 282, 1-(4-(2-Chloro-4-(piperidine-1-carbonyl)benzyl)piperazine-1-carbonyl)-1H-pyrazole-4-carbonitrile]
> 75% | – | > 75% | – | > 75% | – | > 75% | – | > 75% | > 75% | > 75% | > 75% | N#Cc1cnn(C(=O)N2CCN(Cc3ccc(C(=O)N4CCC4)cc3Cl)CC2)c1 [Example 283, 1-(4-(4-(Azetidine-1-carbonyl)-2-chlorobenzyl)piperazine-1-carbonyl)-1H-pyrazole-4-carbonitrile]
